From ChEMBL document CHEMBL1201862, “PubChem BioAssay data set” (2004)
Each block holds one molecule with its values, some of them ahead of it. Calls of active or inactive are those of the source.

Tests used:
[1] = molecular target: T1, Tyrosine-protein phosphatase non-receptor type 7 (Homo sapiens, UniProt P35236); format: functional
T1 sequence (P35236 whole entry): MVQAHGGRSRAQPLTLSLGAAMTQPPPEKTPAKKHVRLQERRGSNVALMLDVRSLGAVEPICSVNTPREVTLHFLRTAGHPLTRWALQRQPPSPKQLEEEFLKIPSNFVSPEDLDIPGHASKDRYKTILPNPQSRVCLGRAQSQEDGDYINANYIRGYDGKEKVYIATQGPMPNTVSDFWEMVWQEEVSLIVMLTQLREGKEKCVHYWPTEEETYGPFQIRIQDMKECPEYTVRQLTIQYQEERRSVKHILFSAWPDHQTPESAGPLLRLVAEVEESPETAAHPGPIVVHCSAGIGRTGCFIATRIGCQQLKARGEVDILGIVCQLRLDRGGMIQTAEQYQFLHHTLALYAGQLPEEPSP

[2] = molecular target: Glyceraldehyde-3-phosphate dehydrogenase (Homo sapiens, UniProt P04406)
Sequence of Glyceraldehyde-3-phosphate dehydrogenase (P04406 whole entry): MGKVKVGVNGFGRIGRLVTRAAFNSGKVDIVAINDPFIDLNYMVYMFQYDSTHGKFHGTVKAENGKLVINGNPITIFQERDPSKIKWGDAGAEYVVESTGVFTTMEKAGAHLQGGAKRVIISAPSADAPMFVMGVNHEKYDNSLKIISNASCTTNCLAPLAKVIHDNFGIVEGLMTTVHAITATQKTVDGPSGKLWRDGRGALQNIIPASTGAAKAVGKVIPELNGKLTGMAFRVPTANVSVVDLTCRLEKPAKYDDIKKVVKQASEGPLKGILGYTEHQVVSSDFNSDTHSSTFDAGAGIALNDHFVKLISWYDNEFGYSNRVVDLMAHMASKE

[3] = molecular target: Heat shock cognate 71 kDa protein (Homo sapiens, UniProt P11142); experiment: In Vitro Hsc70 Dose Response Fluorescence Polarization Assay. [Related pubchem assays: 1072 ]
Sequence of Heat shock cognate 71 kDa protein (P11142 whole entry): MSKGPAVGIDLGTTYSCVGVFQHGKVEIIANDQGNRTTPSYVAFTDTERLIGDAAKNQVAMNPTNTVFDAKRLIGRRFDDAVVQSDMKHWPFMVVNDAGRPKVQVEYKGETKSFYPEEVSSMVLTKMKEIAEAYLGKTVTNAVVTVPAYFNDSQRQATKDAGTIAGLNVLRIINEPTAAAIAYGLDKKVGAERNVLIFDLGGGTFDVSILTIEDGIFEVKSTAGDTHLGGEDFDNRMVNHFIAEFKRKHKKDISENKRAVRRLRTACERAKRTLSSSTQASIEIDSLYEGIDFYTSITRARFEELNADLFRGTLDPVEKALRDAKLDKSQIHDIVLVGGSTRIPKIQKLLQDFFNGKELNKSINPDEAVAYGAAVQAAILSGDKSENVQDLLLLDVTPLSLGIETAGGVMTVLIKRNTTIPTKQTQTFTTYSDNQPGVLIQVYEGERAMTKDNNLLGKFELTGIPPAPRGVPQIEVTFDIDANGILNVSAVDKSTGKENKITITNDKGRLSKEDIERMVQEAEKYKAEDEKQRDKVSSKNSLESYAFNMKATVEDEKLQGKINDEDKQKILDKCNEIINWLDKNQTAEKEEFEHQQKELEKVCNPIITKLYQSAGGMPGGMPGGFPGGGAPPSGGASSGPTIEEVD

[4] = molecular target: Heat shock 70 kDa protein 1A (Homo sapiens, UniProt P0DMV8); experiment: Hsp70 inhibitors, SAR follow-up, biochemical, fluorescence polarization (AID 1072)
Sequence of Heat shock 70 kDa protein 1A (P0DMV8 whole entry): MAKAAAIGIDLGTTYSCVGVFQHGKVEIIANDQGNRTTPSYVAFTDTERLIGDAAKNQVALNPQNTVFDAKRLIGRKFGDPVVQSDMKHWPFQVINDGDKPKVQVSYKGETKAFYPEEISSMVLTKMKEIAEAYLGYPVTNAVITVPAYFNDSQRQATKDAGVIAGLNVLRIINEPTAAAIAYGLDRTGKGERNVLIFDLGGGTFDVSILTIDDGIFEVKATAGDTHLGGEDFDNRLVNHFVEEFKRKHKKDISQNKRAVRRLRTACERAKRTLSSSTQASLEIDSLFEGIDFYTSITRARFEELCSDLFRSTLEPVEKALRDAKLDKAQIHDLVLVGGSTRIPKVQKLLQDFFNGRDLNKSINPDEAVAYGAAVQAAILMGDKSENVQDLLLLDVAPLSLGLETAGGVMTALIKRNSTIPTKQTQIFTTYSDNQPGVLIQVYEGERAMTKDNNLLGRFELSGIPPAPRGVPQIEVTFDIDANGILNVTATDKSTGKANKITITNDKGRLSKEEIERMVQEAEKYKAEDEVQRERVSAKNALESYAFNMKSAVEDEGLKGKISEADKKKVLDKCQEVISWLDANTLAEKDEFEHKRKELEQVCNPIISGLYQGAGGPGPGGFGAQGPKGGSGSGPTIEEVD

[5] = molecular target: T2, Dual specificity protein phosphatase 6 (Rattus norvegicus, UniProt Q64346)
T2 sequence (Q64346 whole entry): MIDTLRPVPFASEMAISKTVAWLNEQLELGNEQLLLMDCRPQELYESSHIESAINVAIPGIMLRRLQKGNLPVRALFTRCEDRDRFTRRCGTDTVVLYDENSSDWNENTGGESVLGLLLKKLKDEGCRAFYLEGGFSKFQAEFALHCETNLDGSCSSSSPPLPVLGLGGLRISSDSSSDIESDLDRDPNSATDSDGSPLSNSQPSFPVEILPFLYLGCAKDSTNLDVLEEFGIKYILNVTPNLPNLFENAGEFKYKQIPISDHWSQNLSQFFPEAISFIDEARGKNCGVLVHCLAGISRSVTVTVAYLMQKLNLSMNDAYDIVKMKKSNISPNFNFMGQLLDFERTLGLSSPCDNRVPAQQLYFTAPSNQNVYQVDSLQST

[6] = molecular target: T2, Dual specificity protein phosphatase 6; format: functional
[7] = molecular target: T3, Heat shock factor protein 1 (Mus musculus, UniProt P38532); experiment: inhibition of MG132-induced HSE-luciferase signal, confirmation, cell-based, NIH3T3, luminescence, dose retest (AID 2382); format: functional;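 further: NIH3T3 fibroblasts with HSF1-driven luciferase reporter stressed by proteasome inhibitor MG132; luminescence from HSF1-driven luciferase expression after 8 hours of MG132 stress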
T3 sequence (P38532 whole entry): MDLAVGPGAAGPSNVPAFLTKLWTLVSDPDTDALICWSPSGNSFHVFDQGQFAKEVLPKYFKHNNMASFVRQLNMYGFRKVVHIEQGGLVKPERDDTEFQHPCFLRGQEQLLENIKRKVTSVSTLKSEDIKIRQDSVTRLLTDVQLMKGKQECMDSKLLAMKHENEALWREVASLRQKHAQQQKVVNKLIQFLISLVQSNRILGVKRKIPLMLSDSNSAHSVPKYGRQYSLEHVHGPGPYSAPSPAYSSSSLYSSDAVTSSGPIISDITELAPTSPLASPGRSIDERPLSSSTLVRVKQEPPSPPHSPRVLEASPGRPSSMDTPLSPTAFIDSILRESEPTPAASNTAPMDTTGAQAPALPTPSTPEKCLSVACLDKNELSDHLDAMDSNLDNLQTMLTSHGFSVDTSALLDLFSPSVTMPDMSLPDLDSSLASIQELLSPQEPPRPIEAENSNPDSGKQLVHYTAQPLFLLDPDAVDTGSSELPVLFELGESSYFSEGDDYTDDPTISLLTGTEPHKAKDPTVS

[8] = Luminescence-based counterscreen assay for KLF5 inhibitors: dose response cell-based high throughput screening assay to identify cytotoxic compounds using the IEC-6 intestinal epithelial cell line. [Related pubchem assays: 1700 (Primary screen.), 1834 (Confirmation screen.), 1858 (Summary AID.), 1905 (Counterscreen.)]; format: functional
[9] = cytotoxicity in HEK-293T cells, dose response, cytotoxicity control for TCR NF-kB inhibitor project, luminescence, T-cell screen hits (AID 489026); format: functional, cell-based;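 further: cells exposed to compound about 14 hours before the viability readout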
[10] = Shn3 3'UTR reporter inhibitors, dose response, cell-based, Clone20 osteoblasts, firefly luciferase, cherry-picked (AID 624132); format: functional;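 further: firefly luciferase luminescence from reporter carrying the Shn3 3'UTR in osteoblasts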
Paired box protein Pax-8 = Paired box protein Pax-8 (Homo sapiens, UniProt Q06710); experiment: inhibitors of PAX8-driven TPO luciferase reporter, dose response, RMG-I cells, cherry-pick (AID 687027); format: functional, cell-based;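 further: luciferase reporter driven by Pax8 target thyroperoxidase promoter measured by SteadyGlo luminescence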
Sequence of Paired box protein Pax-8 (Q06710 whole entry): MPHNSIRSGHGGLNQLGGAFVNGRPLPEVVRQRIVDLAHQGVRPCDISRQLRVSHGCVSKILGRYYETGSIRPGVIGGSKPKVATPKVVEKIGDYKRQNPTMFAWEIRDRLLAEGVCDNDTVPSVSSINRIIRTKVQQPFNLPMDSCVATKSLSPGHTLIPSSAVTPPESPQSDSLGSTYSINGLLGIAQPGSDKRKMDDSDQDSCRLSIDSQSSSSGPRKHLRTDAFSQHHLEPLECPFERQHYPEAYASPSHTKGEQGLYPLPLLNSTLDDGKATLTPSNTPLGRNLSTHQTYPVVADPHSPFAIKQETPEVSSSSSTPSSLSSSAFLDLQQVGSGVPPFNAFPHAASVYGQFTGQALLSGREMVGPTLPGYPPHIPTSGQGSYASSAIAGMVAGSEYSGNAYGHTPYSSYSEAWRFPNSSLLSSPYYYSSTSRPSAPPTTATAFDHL

[11] = reduction of Shn3 3'UTR firefly luciferase signal, dose response, Schnurri-3 inhibitor project, cell-based, Clone20 osteoblasts, cherry-pick, set 2 (AID 720490); format: functional;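 further: actives lower the luminescence signal as inhibitors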
[12] = A549 cell cytotoxicity, dose response, cytotoxicity control, plate reader, cherry-pick, antagonist series (AID 743412); format: functional, cell-based
[13] = HepG2 cell cytotoxicity, dose response, cytotoxicity control, plate reader, cherry-pick, antagonist series (AID 743416); format: functional, cell-based
[14] = LGR2 antagonists, dose response, cell-based, HEK293, CRE-luciferase reporter, cherry pick, set 2 (AID 743343); format: functional;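 further: transfected cells were stimulated with diluted bursicon conditioned medium after compound addition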
[15] = MC4R antagonists, dose response, counter-screen for LGR2 antagonist project, cell-based, plate reader, cherry pick (AID 743444); format: functional;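 further: transfected HEK 293 cells stimulated with alpha-MSH peptide; potency of inhibitors of the alpha-MSH evoked signal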
HEK293 [16] = experiment: NOD1 signaling inhibitors, primary screen, cell-based, luminescence, uHTS (AID 1578); format: functional; details: Homo sapiens
HEK293 [17] = experiment: cells; format: functional, cell-based; details: Homo sapiens
HEK293 [18] = experiment: cells; format: functional, cell-based; details: Homo sapiens; remark: listed apart in the source
[19] = molecular target: Nucleotide-binding oligomerization domain-containing protein 2 (Homo sapiens, UniProt Q9HC29); experiment: NOD2 signaling inhibitors, cell-based, luminescence, uHTS, HEK293 (AID 1566); format: functional
Sequence of Nucleotide-binding oligomerization domain-containing protein 2 (Q9HC29 whole entry, the tested form may be a part): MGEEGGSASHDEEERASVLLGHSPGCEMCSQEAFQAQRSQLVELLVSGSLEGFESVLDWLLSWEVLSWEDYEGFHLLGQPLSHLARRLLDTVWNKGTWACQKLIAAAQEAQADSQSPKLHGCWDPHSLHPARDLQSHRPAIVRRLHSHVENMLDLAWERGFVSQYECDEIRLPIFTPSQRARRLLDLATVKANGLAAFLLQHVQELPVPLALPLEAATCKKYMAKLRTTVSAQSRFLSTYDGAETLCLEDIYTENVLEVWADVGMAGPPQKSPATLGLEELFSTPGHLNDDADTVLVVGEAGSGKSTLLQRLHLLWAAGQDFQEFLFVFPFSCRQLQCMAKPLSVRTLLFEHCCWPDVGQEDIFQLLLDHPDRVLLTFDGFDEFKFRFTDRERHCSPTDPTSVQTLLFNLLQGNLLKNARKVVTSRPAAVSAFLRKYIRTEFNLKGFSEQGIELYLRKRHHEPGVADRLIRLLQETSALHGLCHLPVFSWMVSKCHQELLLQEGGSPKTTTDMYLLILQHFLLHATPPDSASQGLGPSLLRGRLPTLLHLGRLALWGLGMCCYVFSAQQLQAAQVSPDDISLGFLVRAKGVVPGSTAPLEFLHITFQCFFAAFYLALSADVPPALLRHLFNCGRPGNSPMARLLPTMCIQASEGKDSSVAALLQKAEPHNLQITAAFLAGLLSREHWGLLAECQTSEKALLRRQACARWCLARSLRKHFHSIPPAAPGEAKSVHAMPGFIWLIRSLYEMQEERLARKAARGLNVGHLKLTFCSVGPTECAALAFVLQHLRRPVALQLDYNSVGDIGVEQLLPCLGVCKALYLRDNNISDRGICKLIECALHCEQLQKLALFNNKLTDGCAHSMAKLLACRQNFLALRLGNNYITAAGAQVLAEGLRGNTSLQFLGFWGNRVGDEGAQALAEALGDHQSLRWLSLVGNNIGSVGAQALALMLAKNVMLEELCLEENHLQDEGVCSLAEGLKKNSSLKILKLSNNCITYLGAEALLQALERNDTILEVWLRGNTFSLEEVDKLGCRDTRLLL

HEK293 [20] = experiment: NOD2 signaling inhibitors in MDP-stimulated cells, cell-based, uHTS, luminescence (AID 2001); format: functional; details: Homo sapiens
HEK293 [21] = experiment: cells; format: functional, cell-based; details: Homo sapiens; remark: listed apart in the source

- IC50 [1]: 2.38 µM (active)
- IC50 [2]: > 100 µM (not active)
- IC50 [3]: > 100 µM (not active)
- IC50 [4]: > 100 µM (not active)
- IC50 [5]: 17 µM (active)
- IC50 [6]: 15.6 µM (active)
Structure (SMILES): O=C(Oc1ccc2c(c1)C1C=CCC1C(C(=O)O)N2)c1ccc(Cl)cc1Cl (centres undefined)

Structure (SMILES): CCN(c1ccccc1)S(=O)(=O)c1ccc(Cl)c(NC(=O)c2ccc(O)nn2)c1
- IC50 (cells): 32.8 µM (active)

Structure (SMILES): CC1=C2C(=O)C3C(CC=C4CC(O)CCC43C)C2CCC12OC1CC(C)CNC1C2C (centres undefined)
- IC50 (cells): 4.18 µM (active)

Structure (SMILES): CC(C)(C)C(=O)Nc1ccc(NC(=O)c2ccco2)nc1
- EC50 [7]: < 0.16 µM (active)
- IC50 [8]: > 39.8 µM (not active)
- IC50 [9]: > 80 µM (inactive)
- AC50 [10]: 1.17 µM (active)
- AC50 (Paired box protein Pax-8): 1.26 µM (active)
- AC50 [11]: 2.64 µM (active)
- AC50 [12]: > 52 µM (inactive)
- AC50 [13]: > 52 µM (inactive)
- AC50 [14]: 0.243 µM (active)
- AC50 [15]: 0.245 µM (active)

Structure (SMILES): Cn1c(Sc2ccc(Cl)cc2)c(C=O)c2ccccc21
- EC50 (HEK293 [16]): 1.63 µM (active)
- IC50 (HEK293 [17]): 0.748 µM (active)
- IC50 (HEK293 [18]): > 20 µM (inactive)
- EC50 [19]: 2.17 µM (active)
- IC50 (HEK293 [20]): 1.15 µM (active)
- IC50 (HEK293 [21]): > 20 µM (inactive)
